Data from ChEMBL document CHEMBL2202973, “Specific interactions between adenosine and streptavidin/avidin” (Bioorg Med Chem Lett, 2012).
Activity calls are given as the source filed them. The rule behind the calls is not given here.

What was measured:
[1] = molecular target: Streptavidin (Streptomyces avidinii) (UniProt P22629); assay: Binding affinity to Streptomyces avidinii assessed as changes in protein fluorescence intensity by fluorescence spectral analysis method
[2] = molecular target: Avidin (Gallus gallus) (UniProt P02701); assay: Binding affinity to chick avidin assessed as quenching rate constant by fluorescence quenching spectral method
Sequence of Avidin (Gallus gallus) (P02701 whole entry): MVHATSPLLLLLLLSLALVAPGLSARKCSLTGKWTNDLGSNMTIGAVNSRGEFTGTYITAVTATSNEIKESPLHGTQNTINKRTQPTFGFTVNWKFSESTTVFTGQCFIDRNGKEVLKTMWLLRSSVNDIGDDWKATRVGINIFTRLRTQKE

[3] = molecular target: Streptavidin (Streptomyces avidinii) (UniProt P22629); assay: Binding affinity to Streptomyces avidinii assessed as quenching rate constant by fluorescence quenching spectral method
[4] = molecular target: Avidin (Gallus gallus, UniProt P02701); assay: Binding affinity to chick avidin using fluorescence spectral analysis method based double reciprocal plot analysis; settings: read-out: Kd(app)
Sequence of Avidin (P02701 whole entry): as above

[5] = molecular target: Albumin (Bos taurus, UniProt P02769); assay: Binding affinity to BSA assessed as changes in tryptophan fluorescence intensity by fluorescence spectral analysis method; settings: cattle
Sequence of Albumin (P02769 whole entry): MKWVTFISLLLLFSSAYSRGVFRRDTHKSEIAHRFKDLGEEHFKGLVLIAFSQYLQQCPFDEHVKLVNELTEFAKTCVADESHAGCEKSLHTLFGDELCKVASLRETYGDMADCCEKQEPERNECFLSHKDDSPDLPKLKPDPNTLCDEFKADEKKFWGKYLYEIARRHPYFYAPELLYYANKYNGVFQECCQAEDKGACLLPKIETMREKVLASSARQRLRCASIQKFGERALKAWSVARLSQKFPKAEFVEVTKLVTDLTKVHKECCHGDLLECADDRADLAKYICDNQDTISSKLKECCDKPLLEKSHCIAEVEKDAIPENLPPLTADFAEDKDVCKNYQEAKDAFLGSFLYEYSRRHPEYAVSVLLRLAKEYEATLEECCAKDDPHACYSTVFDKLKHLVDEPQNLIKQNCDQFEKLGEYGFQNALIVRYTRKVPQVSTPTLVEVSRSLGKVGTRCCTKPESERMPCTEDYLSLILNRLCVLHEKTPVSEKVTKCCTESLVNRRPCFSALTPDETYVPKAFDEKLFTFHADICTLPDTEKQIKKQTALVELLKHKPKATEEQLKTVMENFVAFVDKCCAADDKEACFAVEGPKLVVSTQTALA

[6] = molecular target: Avidin (Gallus gallus) (UniProt P02701); assay: Binding affinity to chick avidin assessed as changes in protein fluorescence intensity by fluorescence spectral analysis method
[7] = molecular target: Avidin (Gallus gallus) (UniProt P02701); assay: Binding affinity to chick avidin assessed as changes in protein fluorescence intensity in presence of biotin by fluorescence spectral analysis method
[8] = molecular target: Streptavidin (Streptomyces avidinii) (UniProt P22629); assay: Binding affinity to Streptomyces avidinii assessed as changes in protein fluorescence intensity in presence of biotin by fluorescence spectral analysis method
[9] = molecular target: Streptavidin (Streptomyces avidinii, UniProt P22629); assay: Binding affinity to Streptomyces avidinii streptavidin using fluorescence spectral analysis method based double reciprocal plot analysis; settings: read-out: Kd(app)
Sequence of Streptavidin (P22629 whole entry): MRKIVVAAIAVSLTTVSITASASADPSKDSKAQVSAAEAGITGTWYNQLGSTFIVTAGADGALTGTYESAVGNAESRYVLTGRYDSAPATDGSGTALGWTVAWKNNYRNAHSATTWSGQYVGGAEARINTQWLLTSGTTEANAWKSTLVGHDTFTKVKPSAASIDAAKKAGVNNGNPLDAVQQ

Sequence of Streptavidin (Streptomyces avidinii) (P22629 whole entry): as above

Structure (SMILES)	Activity [1]	Kq [2]	Kq [3]	Kd [4]	Activity [5]	Activity [6]	Activity [7]	Activity [8]	Kd [9]
O=C(O)CCCC[C@@H]1SC[C@@H]2NC(=O)N[C@@H]21	Active	–	–	–	–	–	–	–	–
Nc1ncnc2c1ncn2[C@@H]1O[C@H](CO)[C@@H](O)[C@H]1O [ADENOSINE]	Active	1.28 ×10¹¹ L/mol/s	8.5 ×10¹⁰ L/mol/s	117 µM	Not Active	Active	inactive	inactive	168 µM
Nc1ncnc2c1ncn2[C@@H]1O[C@H](COP(=O)(O)OP(=O)(O)OP(=O)(O)O)[C@@H](O)[C@H]1O	inactive	–	–	–	–	–	–	–	–
